Assay [1] addresses Integrin alpha-IIb/beta-3 (Homo sapiens, UniProt P05106+P08514). Briefly: In vitro inhibitory activity against blockage of binding of fibrinogen to purified human GPIIbIIIa. The format is protein-complex assay.
Assay [2] is filed under the species Homo sapiens. Briefly: In vitro ability to inhibit the aggregation of ADP-stimulated human platelets. The format is functional.

This is an account of results in ChEMBL document CHEMBL1134062, “Spirocyclic nonpeptide glycoprotein IIb-IIIa antagonists. Part 2: design of potent antagonists containing the 3-azaspiro[5.5]undecanes” (Bioorg Med Chem Lett, 2001).

The IC50 is the concentration that gives 50% inhibition. The low end stands for greater potency, the high end for weaker potency.

Sequence of Integrin alpha-IIb/beta-3 (P05106 27-788 limits assumed): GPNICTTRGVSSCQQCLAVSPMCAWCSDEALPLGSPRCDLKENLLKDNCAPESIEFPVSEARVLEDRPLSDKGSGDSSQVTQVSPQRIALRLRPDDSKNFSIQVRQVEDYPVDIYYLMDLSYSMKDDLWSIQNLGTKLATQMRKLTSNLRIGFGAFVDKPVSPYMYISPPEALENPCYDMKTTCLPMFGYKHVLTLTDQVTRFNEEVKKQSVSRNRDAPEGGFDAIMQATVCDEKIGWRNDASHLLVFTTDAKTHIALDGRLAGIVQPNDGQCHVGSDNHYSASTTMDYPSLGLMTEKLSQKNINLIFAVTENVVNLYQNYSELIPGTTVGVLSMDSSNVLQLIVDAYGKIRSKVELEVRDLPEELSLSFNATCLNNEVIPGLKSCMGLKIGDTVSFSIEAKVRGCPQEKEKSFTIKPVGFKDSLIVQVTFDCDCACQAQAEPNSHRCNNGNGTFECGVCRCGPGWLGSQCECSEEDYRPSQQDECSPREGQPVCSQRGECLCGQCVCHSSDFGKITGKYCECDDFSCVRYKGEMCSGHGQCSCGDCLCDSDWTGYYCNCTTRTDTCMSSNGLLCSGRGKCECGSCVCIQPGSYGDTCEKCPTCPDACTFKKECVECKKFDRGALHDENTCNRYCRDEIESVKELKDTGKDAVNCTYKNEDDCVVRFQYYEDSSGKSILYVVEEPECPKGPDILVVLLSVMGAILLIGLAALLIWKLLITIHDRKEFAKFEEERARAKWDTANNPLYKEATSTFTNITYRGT
Sequence of Integrin alpha-IIb/beta-3 (P08514 32-887 limits assumed): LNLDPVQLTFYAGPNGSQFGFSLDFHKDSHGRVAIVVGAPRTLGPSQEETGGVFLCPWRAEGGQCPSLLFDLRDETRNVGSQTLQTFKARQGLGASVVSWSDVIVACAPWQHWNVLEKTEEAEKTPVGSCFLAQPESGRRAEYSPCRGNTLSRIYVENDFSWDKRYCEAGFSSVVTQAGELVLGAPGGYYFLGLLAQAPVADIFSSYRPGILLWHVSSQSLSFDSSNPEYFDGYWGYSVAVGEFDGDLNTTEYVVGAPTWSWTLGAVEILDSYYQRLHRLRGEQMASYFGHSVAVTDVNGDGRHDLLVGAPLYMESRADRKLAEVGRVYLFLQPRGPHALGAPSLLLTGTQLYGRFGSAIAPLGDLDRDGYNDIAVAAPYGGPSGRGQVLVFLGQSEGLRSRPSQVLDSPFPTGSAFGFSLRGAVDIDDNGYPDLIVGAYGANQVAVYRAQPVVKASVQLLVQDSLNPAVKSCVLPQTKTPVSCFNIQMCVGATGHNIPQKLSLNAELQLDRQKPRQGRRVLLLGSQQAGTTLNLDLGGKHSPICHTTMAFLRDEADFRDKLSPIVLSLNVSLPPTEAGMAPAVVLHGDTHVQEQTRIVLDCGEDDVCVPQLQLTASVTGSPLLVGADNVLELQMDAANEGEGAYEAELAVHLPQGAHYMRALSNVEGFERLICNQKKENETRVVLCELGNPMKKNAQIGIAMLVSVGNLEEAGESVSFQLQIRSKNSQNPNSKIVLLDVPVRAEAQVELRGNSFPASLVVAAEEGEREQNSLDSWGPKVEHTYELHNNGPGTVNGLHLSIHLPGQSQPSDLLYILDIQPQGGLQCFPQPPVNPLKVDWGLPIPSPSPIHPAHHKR
Sequence of Integrin alpha-IIb/beta-3 (P08514 891-1039 limits assumed): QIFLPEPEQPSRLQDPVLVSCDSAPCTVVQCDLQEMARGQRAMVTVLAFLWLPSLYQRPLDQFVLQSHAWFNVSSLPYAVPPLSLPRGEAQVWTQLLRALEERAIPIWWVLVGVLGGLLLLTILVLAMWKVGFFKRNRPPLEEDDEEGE

On to `CCCCOC(=O)N[C@@H](CNC(=O)C1CCC2(CC1)CCN(c1ccncc1)CC2)C(=O)O`, for which the IC50 in assay [1] stood at 0.008 µM; in assay [2] it was 1.3 µM.

With `Cc1noc(C)c1S(=O)(=O)N[C@@H](CNC(=O)C1CCC2(CC1)CCN(c1ccncc1)CC2)C(=O)O`, inhibition in assay [2] was half-maximal at 0.04 µM (IC50).

In assay [2], `CCCCS(=O)(=O)N[C@@H](CNC(=O)C1CCC2(CC1)CCN(c1ccncc1)CC2)C(=O)O` yielded an IC50 of 0.179 µM. Compared with the last compound, the IC50 is about 4.5-fold higher. As to `O=C(O)CCC(=O)N1CCC2(CCC(C(=O)N3CCC(C4CCNCC4)CC3)CC2)CC1`, the IC50 in assay [1] turned out to be 100 µM; in assay [2] it was 50 µM. On the same counts, the results for `O=C(N[C@@H](CNC(=O)C1CCC2(CC1)CCN(c1ccncc1)CC2)C(=O)O)OCc1ccccc1` are 0.002 µM and 2.7 µM. The matching figures for `N[C@@H](CNC(=O)C1CCC2(CC1)CCN(c1ccncc1)CC2)C(=O)O`: 0.83 µM and 12.2 µM. On the same counts, the results for `O=C(O)CN1CCC2(CCC(C(=O)N3CCC(C4CCNCC4)CC3)CC2)CC1` are 0.25 µM and 0.289 µM. In assay [2], `N=C(N)c1ccc(C(=O)N2CCC3(CCC(C(=O)NCC(=O)O)CC3)CC2)cc1` yielded an IC50 of 38.5 µM. With `CC(CNC(=O)C1CCC2(CC1)CCN(c1ccncc1)CC2)CC(=O)O` (stereo not drawn), the IC50 in assay [1] stood at 0.332 µM; in assay [2] it was 4 µM. For the compound `N=C(N)c1ccc(C(=O)N2CCC3(CCC(C(=O)O)CC3)CC2)cc1`, the IC50 in assay [1] was determined as 15 µM; in assay [2], 19.7 µM. Consider `O=C(O)CCCNC(=O)C1CCC2(CC1)CCN(c1ccncc1)CC2`, for which the IC50 in assay [1] came out at 0.319 µM; in assay [2], 12 µM. On the same counts, the results for `N=C(N)c1ccc(N2CCC3(CCC(C(=O)NCCCC(=O)O)CC3)CC2)cc1` are 5 µM and 37.1 µM. On the same counts, the results for `O=C(O)CCCC(=O)N1CCC2(CCC(C(=O)N3CCC(C4CCNCC4)CC3)CC2)CC1` are 100 µM and 50 µM. Consider `O=C(O)CNC1CCC2(CC1)CCN(c1ccncc1)CC2`, for which the IC50 is 0.16 µM in assay [1] and 0.89 µM in assay [2]. As for `O=C(O)CN1CCC2(CCC(C(=O)N3CCN(c4ccncc4)CC3)CC2)CC1`, the IC50 came to 0.364 µM in assay [1] and 0.117 µM in assay [2]. The matching figures for `C[C@@H](CC(=O)O)NC(=O)C1CCC2(CC1)CCN(c1ccncc1)CC2`: 0.616 µM and 14.3 µM. The matching figures for `O=C(O)CCN1CCC2(CCC(C(=O)N3CCN(c4ccncc4)CC3)CC2)CC1`: 3.45 µM and 7.9 µM. The matching figures for `N=C(N)c1ccc(N2CCC3(CCC(C(=O)NCCC(=O)O)CC3)CC2)cc1`: 0.06 µM and 5.5 µM. Regarding `O=C(O)COC1CCC2(CC1)CCN(c1ccncc1)CC2`, the IC50 was 0.25 µM in assay [1] and 1.1 µM in assay [2]. In turn, `O=C(O)CCNC1CCC2(CC1)CCN(c1ccncc1)CC2` returned an IC50 in assay [2] of 4.5 µM. `Cc1ccc(S(=O)(=O)N[C@@H](CNC(=O)C2CCC3(CC2)CCN(c2ccncc2)CC3)C(=O)O)cc1` displayed an IC50 in assay [2] of 0.177 µM. On the same count and under the same terms, for `O=C(O)C[C@@H](NC(=O)C1CCC2(CC1)CCN(c1ccncc1)CC2)c1ccccc1` the value was 77 µM.
